The results in this text go back to patent US9346812B2, “Substituted pyrrolopyrimidine compounds, compositions thereof, and methods of treatment therewith” (Signal Pharmaceutical LLC, priority 2013, dated 2016).

pIC50: −log10 of the molar value. Read-outs that look alike come from different tables or passages of the source.

For this experiment, the system named is CAL51 cell proliferation. The experiment can be described thus: Cell Titer Glo Proliferation Assay (CAL51). The format is cell-based, human. The following applies: CAL51 cell proliferation, 72 h, Cell Titer Glo luminescence, read-out: Act. Level. The essentials: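 CAL51 triple-negative breast cancer cells in DMEM or RPMI with 10% FBS were treated after overnight culture with serially diluted compound at 0.2% final DMSO. After 72 h, viability was read as CellTiter-Glo luminescence.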
(In general: Cellular ATP, detected with luciferase, serves as a proxy for viable cell number.)

With `CNC(=O)c1ccc(Nc2nc(OC(C)(C)C)c3c(-c4ccc5nc(C)oc5c4)c[nH]c3n2)c(OC)c1` [Example 246, 4-(4-tert-butoxy-5-(2-methylbenzo[d]oxazol-6-yl)-7H-pyrrolo[2,3-d]pyrimidin-2-ylamino)-3-methoxy-N-methylbenzamide], the pIC50 (Homo sapiens, CAL-51) is more than 7.00.
Same read-out and setting: for `COc1nc(Nc2ccc(C(=O)N(C)C)cc2C)nc2[nH]cc(-c3ccncc3)c12` [Example 89, 4-(4-methoxy-5-(pyridin-4-yl)-7H-pyrrolo[2,3-d]pyrimidin-2-ylamino)-N,N,3-trimethylbenzamide] the value was 6.40 to 7.00.
For the compound `CNC(=O)c1ccc(Nc2nc(OC(C)C)c3c(-c4ccn(C)n4)c[nH]c3n2)c(OC)c1` [Example 220, 4-(4-isopropoxy-5-(1-methyl-1H-pyrazol-3-yl)-7H-pyrrolo[2,3-d]pyrimidin-2-ylamino)-3-methoxy-N-methylbenzamide], where the note is “Homo sapiens, CAL-51”, the pIC50 is 5.00 to 6.00.
The same measure, in the same setting: the result for `COc1cc(C(=O)N(C)CC2(C)COC2)ccc1Nc1nc(OC2CCCC2)c2c(-c3ccc4nc(C)oc4c3)c[nH]c2n1` [Example 271, 4-(4-(cyclopentyloxy)-5-(2-methylbenzo[d]oxazol-6-yl)-7H-pyrrolo[2,3-d]pyrimidin-2-ylamino)-3-methoxy-N-methyl-N-((3-methyloxetan-3-yl)methyl)benzamide] reads more than 7.00; that for `COc1ccccc1Nc1nc(OC2CCCC2)c2c(-c3ccc4nc(C)oc4c3)c[nH]c2n1` [Example 103, 4-(cyclopentyloxy)-N-(2-methoxyphenyl)-5-(2-methylbenzo[d]oxazol-6-yl)-7H-pyrrolo[2,3-d]pyrimidin-2-amine], 6.40 to 7.00; that for `CNC(=O)c1ccc(Nc2nc(O[C@H]3CC[C@H](O)CC3)c3c(-c4ccc5nc(C)oc5c4)c[nH]c3n2)c(OC)c1` [Example 137, 4-(4-((1r,4r)-4-hydroxycyclo-hexyloxy)-5-(2-methylbenzo[d]oxazol-6-yl)-7H-pyrrolo[2,3-d]pyrimidin-2-ylamino)-3-methoxy-N-methylbenzamide], more than 7.00.
The same measure, in the same setting: for `Cc1nc2ccc(-c3c[nH]c4nc(Nc5cn(C)nc5C)nc(OC5CCCC5)c34)cc2o1` [Example 307, 4-(cyclopentyloxy)-N-(1,3-dimethyl-1H-pyrazol-4-yl)-5-(2-methylbenzo[d]oxazol-6-yl)-7H-pyrrolo[2,3-d]pyrimidin-2-amine] the value was more than 7.00.
With `Cc1nc2ccc(-c3c[nH]c4nc(Nc5ccc(C(=O)N6CCOCC6)cc5C)nc(OC5CCCC5)c34)cc2o1` [Example 86, (4-(4-(cyclopentyloxy)-5-(2-methylbenzo[d]oxazol-6-yl)-7H-pyrrolo[2,3-d]pyrimidin-2-ylamino)-3-methylphenyl) (morpholino)methanone], the pIC50 (Homo sapiens, CAL-51) was 6.40 to 7.00.
The same measure, in the same setting: for `COc1cc(C(=O)N2C[C@@H](O)[C@H](OC)C2)ccc1Nc1nc(OC2CCCC2)c2c(-c3ccc4nc(C)oc4c3)c[nH]c2n1` [Example 291, (4-(4-(cyclopentyloxy)-5-(2-methylbenzo[d]oxazol-6-yl)-7H-pyrrolo[2,3-d]pyrimidin-2-ylamino)-3-methoxyphenyl) ((3R,4R)-3-hydroxy-4-methoxypyrrolidin-1-yl) methanone] the value was more than 7.00; for `Cc1cc(C(=O)N(C)C)ccc1Nc1nc(OC2CCOCC2)c2c(-c3ccncc3)c[nH]c2n1` [Example 93, N,N,3-trimethyl-4-(5-(pyridin-4-yl)-4-(tetrahydro-2H-pyran-4-yloxy)-7H-pyrrolo[2,3-d]pyrimidin-2-ylamino)benzamide], more than 7.00.
Same read-out and setting: the result for `CNC(=O)c1ccc(Nc2nc(OC3CCCC3)c3c(-c4cccnc4)c[nH]c3n2)c(OC)c1` [Example 58, 4-(4-(cyclopentyloxy)-5-(pyridin-3-yl)-7H-pyrrolo[2,3-d]pyrimidin-2-ylamino)-3-methoxy-N-methylbenzamide] reads more than 7.00; that for `CNC(=O)c1ccc(Nc2nc(OC3CCOCC3)c3c(-c4cccc(S(C)(=O)=O)c4)c[nH]c3n2)c(OC)c1` [Example 106, 3-methoxy-N-methyl-4-(5-(3-(methylsulfonyl)phenyl)-4-(tetrahydro-2H-pyran-4-yloxy)-7H-pyrrolo[2,3-d]pyrimidin-2-ylamino)benzamide], more than 7.00.
Turning to `CNC(=O)c1ccc(Nc2nc(OC3CCCC3)c3c(-c4ccc5nn[nH]c5c4)c[nH]c3n2)c(OC)c1` [Example 27, 4-(5-(1H-benzo[d][1,2,3]triazol-6-yl)-4-(cyclopentyloxy)-7H-pyrrolo [2,3-d]pyrimidin-2-ylamino)-3-methoxy-N-methylbenzamide], the pIC50 (Homo sapiens, CAL-51) was more than 7.00.
On the same count and under the same terms, for `COc1cc(C(=O)N(C)C2CCOCC2)ccc1Nc1nc(OC2CCCC2)c2c(-c3ccc4nc(C)oc4c3)c[nH]c2n1` [Example 250, 4-(4-(cyclopentyloxy)-5-(2-methylbenzo[d]oxazol-6-yl)-7H-pyrrolo[2,3-d]pyrimidin-2-ylamino)-3-methoxy-N-methyl-N-(tetrahydro-2H-pyran-4-yl)benzamide] the value was 6.40 to 7.00; for `CNC(=O)c1ccc(Nc2nc(OC3CCOCC3)c3c(-c4ccc5nc(C)sc5c4)c[nH]c3n2)c(OC)c1` [Example 223, 3-methoxy-N-methyl-4-(5-(2-methylbenzo[d]thiazol-6-yl)-4-(tetrahydro-2H-pyran-4-yloxy)-7H-pyrrolo[2,3-d]pyrimidin-2-ylamino)benzamide], more than 7.00.
With `CNC(=O)c1ccc(Nc2nc(OC3CCCC3)c3c(-c4ccc(O)c(C#N)c4)c[nH]c3n2)c(OC)c1` [Example 33, 4-(5-(3-cyano-4-hydroxyphenyl)-4-(cyclopentyloxy)-7H-pyrrolo[2,3-d]pyrimidin-2-ylamino)-3-methoxy-N-methylbenzamide], for the setting “Homo sapiens, CAL-51”, the pIC50 is more than 7.00.
With `CNC(=O)c1ccc(Nc2nc(OC3CCCC3)c3c(-c4ccc(N)c(O)c4)c[nH]c3n2)c(OC)c1` [Example 294, 4-(5-(4-amino-3-hydroxyphenyl)-4-(cyclopentyloxy)-7H-pyrrolo [2,3-d]pyrimidin-2-ylamino)-3-methoxy-N-methylbenzamide], for the setting “Homo sapiens, CAL-51”, the pIC50 is 6.40 to 7.00.
On the same count and under the same terms, the result for `CNC(=O)c1ccc(Nc2nc(OC3CCCC3)c3c(-c4ccc(NC(C)=O)c(O)c4)c[nH]c3n2)c(OC)c1` [Example 290, 4-(5-(4-acetamido-3-hydroxy-phenyl)-4-(cyclopentyloxy)-7H-pyrrolo[2,3-d]pyrimidin-2-ylamino)-3-methoxy-N-methylbenzamide] reads 6.40 to 7.00; that for `COc1cc(C(N)=O)ccc1Nc1nc(OC2CCCC2)c2c(-c3ccc(O)cc3)c[nH]c2n1` [Example 44, 4-(4-(cyclopentyloxy)-5-(4-hydroxyphenyl)-7H-pyrrolo[2,3-d]pyrimidin-2-ylamino)-3-methoxybenzamide], more than 7.00; that for `COc1cc(C(=O)NCCO)ccc1Nc1nc(OC2CC2)c2c(-c3ccc4nc(C)oc4c3)c[nH]c2n1` [Example 216, 4-(4-cyclopropoxy-5-(2-methylbenzo[d]oxazol-6-yl)-7H-pyrrolo[2,3-d]pyrimidin-2-ylamino)-N-(2-hydroxyethyl)-3-methoxybenzamide], more than 7.00.
As to `CNC(=O)c1ccc(Nc2nc(OC3CCCC3)c3c(-c4cccc(NC(C)=O)c4)c[nH]c3n2)c(OC)c1` [Example 56, 4-(5-(3-acetamidophenyl)-4-(cyclopentyloxy)-7H-pyrrolo[2,3-d]pyrimidin-2-ylamino)-3-methoxy-N-methylbenzamide], under “Homo sapiens, CAL-51”, the pIC50 is more than 7.00.
On the same count and under the same terms, the result for `Cc1cc(C(=O)N(C)C)ccc1Nc1nc(OC2CCOCC2)c2c(-c3ncco3)c[nH]c2n1` [Example 115, N,N,3-trimethyl-4-(5-(oxazol-2-yl)-4-(tetrahydro-2H-pyran-4-yloxy)-7H-pyrrolo[2,3-d]pyrimidin-2-ylamino)benzamide] reads 6.00 to 6.40.
On the same count and under the same terms, the result for `CCOc1ccc(-c2c[nH]c3nc(Nc4ccc(C(=O)NC)cc4OC)nc(OC(C)C)c23)cn1` [Example 196, 4-(5-(6-ethoxypyridin-3-yl)-4-isopropoxy-7H-pyrrolo[2,3-d]pyrimidin-2-ylamino)-3-methoxy-N-methylbenzamide] reads 6.40 to 7.00.
For `COc1cc(C(=O)NC(C)(C)CO)ccc1Nc1nc(OC2CCCC2)c2c(-c3ccc4nc(C)oc4c3)c[nH]c2n1` [Example 234, 4-(4-(cyclopentyloxy)-5-(2-methylbenzo[d]oxazol-6-yl)-7H-pyrrolo[2,3-d]pyrimidin-2-ylamino)-N-(1-hydroxy-2-methylpropan-2-yl)-3-methoxybenzamide], the pIC50 (Homo sapiens, CAL-51) is 6.40 to 7.00.
As for `COc1cc(C(=O)NC2CCCOC2)ccc1Nc1nc(OC2CCCC2)c2c(-c3ccc4nc(C)oc4c3)c[nH]c2n1` (centres unmarked) [Example 274, 4-(4-(cyclopentyloxy)-5-(2-methylbenzo[d]oxazol-6-yl)-7H-pyrrolo[2,3-d]pyrimidin-2-ylamino)-3-methoxy-N-(tetrahydro-2H-pyran-3-yl) benzamide], the pIC50 is more than 7.00.
For `Cc1nc2ccc(-c3c[nH]c4nc(Nc5ccnn5C)nc(OC5CCCC5)c34)cc2o1` [Example 295, 4-(cyclopentyloxy)-N-(1-methyl-1H-pyrazol-5-yl)-5-(2-methylbenzo[d]oxazol-6-yl)-7H-pyrrolo[2,3-d]pyrimidin-2-amine], the pIC50 (Homo sapiens, CAL-51) was 6.40 to 7.00.
For `CNC(=O)c1ccc(Nc2nc(OC)c3c(-c4ccncc4)c[nH]c3n2)c(OC)c1` [Example 190, 3-methoxy-4-(4-methoxy-5-(pyridin-4-yl)-7H-pyrrolo[2,3-d]pyrimidin-2-ylamino)-N-methylbenzamide], the pIC50 (Homo sapiens, CAL-51) was more than 7.00.
The same measure, in the same setting: for `CNC(=O)c1ccc(Nc2nc(OC)c3c(-c4cn[nH]c4)c[nH]c3n2)c(OC)c1` [Example 129, 3-methoxy-4-(4-methoxy-5-(1H-pyrazol-4-yl)-7H-pyrrolo[2,3-d]pyrimidin-2-ylamino)-N-methylbenzamide] the value was 6.40 to 7.00; for `CNC(=O)c1ccc(Nc2nc(OC3CCCC3)c3c(-c4cncc(O)c4)c[nH]c3n2)c(OC)c1` [Example 51, 4-(4-(cyclopentyloxy)-5-(5-hydroxypyridin-3-yl)-7H-pyrrolo [2,3-d]pyrimidin-2-ylamino)-3-methoxy-N-methylbenzamide], more than 7.00.
